These results are taken from patent US11998539B2, “Substituted aminoquinolones as DGKalpha inhibitors for immune activation” (Bayer Aktiengesellschaft, priority 2019, dated 2024).

SMILES strings stand for the structures.

The target in this assay is DGKα (Homo sapiens (Human), UniProt P23743). As to the kind of experiment: Human DGKα kinase activity inhibition assay (ADP-Glo). Type of assay: biochemical. To be noted: recombinant full-length human DGKα, 55 μM ATP, 7 μM 1,2-dioleoyl-sn-glycerol, read-out: IC50 values of examples in in vitro human DGKa kinase activity inhibition assays. The procedure: Human DGKα Kinase Activity Inhibition Assay
Chain of DGKα (P23743 other isoform, or with tags, fused parts or gaps): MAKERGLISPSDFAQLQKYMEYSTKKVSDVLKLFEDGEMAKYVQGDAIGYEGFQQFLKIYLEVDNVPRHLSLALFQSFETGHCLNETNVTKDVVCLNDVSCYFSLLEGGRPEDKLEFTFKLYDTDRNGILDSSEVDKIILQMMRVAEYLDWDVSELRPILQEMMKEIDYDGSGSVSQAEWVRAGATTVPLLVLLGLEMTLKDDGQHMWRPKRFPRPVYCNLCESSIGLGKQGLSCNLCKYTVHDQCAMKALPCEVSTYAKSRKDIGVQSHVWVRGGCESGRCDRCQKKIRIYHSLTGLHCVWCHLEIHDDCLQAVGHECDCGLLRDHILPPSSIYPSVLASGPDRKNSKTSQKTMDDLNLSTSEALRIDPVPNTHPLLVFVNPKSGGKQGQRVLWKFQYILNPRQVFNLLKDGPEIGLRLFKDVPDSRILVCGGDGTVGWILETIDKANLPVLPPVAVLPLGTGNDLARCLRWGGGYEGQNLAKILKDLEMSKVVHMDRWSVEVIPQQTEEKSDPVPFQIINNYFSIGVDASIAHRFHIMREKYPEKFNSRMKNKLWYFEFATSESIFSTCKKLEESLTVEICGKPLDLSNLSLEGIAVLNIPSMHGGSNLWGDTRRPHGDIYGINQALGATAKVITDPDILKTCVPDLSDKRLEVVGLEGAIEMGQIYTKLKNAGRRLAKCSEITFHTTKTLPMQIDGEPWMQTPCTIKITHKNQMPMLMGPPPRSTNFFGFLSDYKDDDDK
Human DGKα inhibitory activity of compounds of the present invention was quantified employing the human DGKα kinase activity assay as described in the following paragraphs. In essence, the enzyme activity was measured by quantification of the adenosine-di-phosphate (ADP) generated as a co-product of the enzyme reaction via the “ADP-Glo™ Kinase Assay” kit from the company Promega. This detection system works as follows: In a first step the ATP not consumed in the kinase reaction is quantitatively converted to cAMP employing an adenylate cyclase (“ADP-Glo-reagent”), then the adenylate cyclase is stopped and the ADP generated in the kinase reaction converted to ATP, which subsequently generates in a luciferase-based reaction a glow-luminescence signal (“Kinase Detection Reagent”).
C-terminally FLAG-tagged, recombinant full-length human DGKα (expressed in baculovirus infected insect cells, purified using anti-Flag pulldown and size exclusion chromatography as described below, DGKa_hu_1) was used as enzyme. As substrate for the kinase 1,2-dioleoyl-sn-glycerol, reconstituted in octyl-β-D-glucopyranoside micelles, was used. […] Then 35 volumes of 50 mM MOPS buffer (pH 7.4) were added to yield a solution of 0.28 mM 1,2 dioleoyl-sn-glycerol and 200 mM […], which was aliquoted, flash-frozen in liquid nitrogen, and stored at −20° C. until use.
For the assay 50 nl of a 100-fold concentrated solution of the test compound in dimethyl sulfoxide (DMSO, Sigma) was pipetted into either a white 1536-well or a white low-volume 384-well microtiter plate (both Greiner Bio-One, Frickenhausen, Germany).
In the case of `Cc1ccc2c(N3CCC(C)(c4nc5ccccc5o4)CC3)c(C#N)c(=O)n(C)c2c1` [Example 218, 4-[4-(1,3-benzoxazol-2-yl)-4-methylpiperidin-1-yl]-1,7-dimethyl-2-oxo-1,2-dihydroquinoline-3-carbonitrile], the IC50 was 0.6 nM.
For the compound `COCc1ccc2oc(C3(C)CCN(c4c(C(N)=O)c(=O)n(C)c5ccccc45)CC3)nc2c1` [Example 490, 4-{4-[5-(methoxymethyl)-1,3-benzoxazol-2-yl]-4-methylpiperidin-1-yl}-1-methyl-2-oxo-1,2-dihydroquinoline-3-carboxamide], the half-maximal inhibitory concentration (IC50) was 7.8 nM.
In the case of `Cc1ccc2oc(C3(C)CCN(c4c(C#N)c(=O)n(C)c5ccc(OCC6(C#N)CC6)cc45)CC3)nc2c1` [Example 268, 6-[(1-cyanocyclopropyl)methoxy]-1-methyl-4-[4-methyl-4-(5-methyl-1,3-benzoxazol-2-yl)piperidin-1-yl]-2-oxo-1,2-dihydroquinoline-3-carbonitrile] it was 65 nM; in that of `Cc1ccc2oc(C3(C)CCN(c4c(C#N)c(=O)n(C)c5cc(CC6COC6)ccc45)CC3)nc2c1` [Example 285, 1-methyl-4-[4-methyl-4-(5-methyl-1,3-benzoxazol-2-yl)piperidin-1-yl]-7-[(oxetan-3-yl)methyl]-2-oxo-1,2-dihydroquinoline-3-carbonitrile], 10 nM.
In the case of `Cc1ccc2c(c1)c(N1CCC(c3nc4cc(Cl)ccc4o3)CC1)c(C(N)=O)c(=O)n2C` [Example 201, 4-[4-(5-chloro-1,3-benzoxazol-2-yl)piperidin-1-yl]-1,6-dimethyl-2-oxo-1,2-dihydroquinoline-3-carboxamide], the half-maximal inhibitory concentration (IC50) amounted to 1.1 nM.
Consider `CNC(=O)c1c(N2CCC(c3nc4ccccc4o3)CC2)c2ccccc2n(C)c1=O` [Example 447, 4-[4-(1,3-benzoxazol-2-yl)piperidin-1-yl]-N,1-dimethyl-2-oxo-1,2-dihydroquinoline-3-carboxamide], for which the IC50 was determined as 63 nM.
`Cc1ccc(-c2csc(C3CCN(c4c(C(N)=O)c(=O)n(C)c5ccccc45)CC3)n2)cc1` [Example 478, 1-methyl-4-{4-[4-(4-methylphenyl)-1,3-thiazol-2-yl]piperidin-1-yl}-2-oxo-1,2-dihydroquinoline-3-carboxamide]: the IC50 came to 9.4 nM.
In the case of `Cc1ccc2oc(C3CCN(c4c(C#N)c(=O)n(C)c5cc(OCC6CO6)ccc45)CC3)nc2c1` (stereo not shown) [Example 384, 1-methyl-4-[4-(5-methyl-1,3-benzoxazol-2-yl)piperidin-1-yl]-7-{[oxiran-2-yl]methoxy}-2-oxo-1,2-dihydroquinoline-3-carbonitrile] it was 1.8 nM.
In the case of `Cc1cccc(-c2nnc(C3CCN(c4c(C(N)=O)c(=O)n(C)c5ccccc45)CC3)o2)c1` [Example 463, 1-methyl-4-{4-[5-(3-methylphenyl)-1,3,4-oxadiazol-2-yl]piperidin-1-yl}-2-oxo-1,2-dihydroquinoline-3-carboxamide] it was 113 nM.
Regarding `Cn1c(=O)c(C#N)c(N2CCC(c3nc4ccccc4s3)CC2)c2cc(Br)ccc21` [Example 169, 4-[4-(1,3-benzothiazol-2-yl)piperidin-1-yl]-6-bromo-1-methyl-2-oxo-1,2-dihydroquinoline-3-carbonitrile], the IC50 stood at 0.6 nM.
Consider `Cc1ccc2oc(C3(C)CCN(c4c(C#N)c(=O)n(C)c5ccc(O)cc45)CC3)nc2c1` [Example 242, 6-hydroxy-1-methyl-4-[4-methyl-4-(5-methyl-1,3-benzoxazol-2-yl)piperidin-1-yl]-2-oxo-1,2-dihydroquinoline-3-carbonitrile], for which the IC50 was found to be 2.7 nM.
Next, `Cn1c(=O)c(C#N)c(N2CCC(c3nc4cc(N5CCCC5=O)ccc4o3)CC2)c2ccccc21` [Example 334, 1-methyl-2-oxo-4-{4-[5-(2-oxopyrrolidin-1-yl)-1,3-benzoxazol-2-yl]piperidin-1-yl}-1,2-dihydroquinoline-3-carbonitrile]: 100 nM; `Cc1ccc2oc(C3CCN(c4c(C#N)c(=O)n(C)c5cc(OC6CCOC6)c(Br)cc45)CC3)nc2c1` (racemic) [Example 424, (rac)-6-bromo-1-methyl-4-[4-(5-methyl-1,3-benzoxazol-2-yl)piperidin-1-yl]-2-oxo-7-[(oxolan-3-yl)oxy]-1,2-dihydroquinoline-3-carbonitrile]: 0.3 nM; `Cn1c(=O)c(C#N)c(N2CCC(c3nc(-c4ccccc4)no3)CC2)c2cc(Br)ccc21` [Example 440, 6-bromo-1-methyl-2-oxo-4-[4-(3-phenyl-1,2,4-oxadiazol-5-yl)piperidin-1-yl]-1,2-dihydroquinoline-3-carbonitrile]: 8.9 nM.
In the case of `Cc1ccc2oc(C3CCN(c4c(C(N)=O)c(=O)n(C)c5cc(C(F)(F)F)ccc45)CC3)nc2c1` [Example 307, 1-methyl-4-[4-(5-methyl-1,3-benzoxazol-2-yl)piperidin-1-yl]-2-oxo-7-(trifluoromethyl)-1,2-dihydroquinoline-3-carboxamide] it was 5.7 nM; in that of `Cc1cc2c(N3CCC(c4nc(-c5ccccc5C)no4)CC3)c(C#N)c(=O)n(C)c2cc1NCCO` [Example 559, 7-[(2-hydroxyethyl)amino]-1,6-dimethyl-4-{4-[3-(2-methylphenyl)-1,2,4-oxadiazol-5-yl]piperidin-1-yl}-2-oxo-1,2-dihydroquinoline-3-carbonitrile], 1.7 nM.
For `Cc1ccc2nc(C3(C)CCN(c4c(C#N)c(=O)n(C)c5ccc(Cl)cc45)CC3)oc2c1` [Example 192, 6-chloro-1-methyl-4-[4-methyl-4-(6-methyl-1,3-benzoxazol-2-yl)piperidin-1-yl]-2-oxo-1,2-dihydroquinoline-3-carbonitrile], the half-inhibitory concentration (IC50) was 1360 nM.
Next, `Cc1cccc(-c2noc(C3CCN(c4c(C(N)=O)c(=O)n(C)c5ccccc45)CC3)n2)c1` [Example 460, 1-methyl-4-{4-[3-(3-methylphenyl)-1,2,4-oxadiazol-5-yl]piperidin-1-yl}-2-oxo-1,2-dihydroquinoline-3-carboxamide]: 3.5 nM.
In the case of `Cc1ccc2oc(C3(C)CCN(c4c(C#N)c(=O)n(C)c5ccccc45)CC3)nc2c1` [Example 288, 1-methyl-4-[4-methyl-4-(5-methyl-1,3-benzoxazol-2-yl)piperidin-1-yl]-2-oxo-1,2-dihydroquinoline-3-carbonitrile] it was 3.8 nM; in that of `Cc1ccc2oc(C3(C)CCN(c4c(C#N)c(=O)n(C)c5c(S(C)(=O)=O)cccc45)CC3)nc2c1` [Example 164, 8-(methanesulfonyl)-1-methyl-4-[4-methyl-4-(5-methyl-1,3-benzoxazol-2-yl)piperidin-1-yl]-2-oxo-1,2-dihydroquinoline-3-carbonitrile], 1.1 nM.
In the case of `Cc1ccc2oc(C3(C)CCN(c4c(C(N)=O)c(=O)n(C)c5ccc(C)cc45)CC3)nc2c1` [Example 198, 1,6-dimethyl-4-[4-methyl-4-(5-methyl-1,3-benzoxazol-2-yl)piperidin-1-yl]-2-oxo-1,2-dihydroquinoline-3-carboxamide] it was 2.1 nM; in that of `Cn1c(=O)c(C(N)=O)c(N2CCC(c3nc(-c4cccnc4)no3)CC2)c2ccccc21` [Example 475, 1-methyl-2-oxo-4-{4-[3-(pyridin-3-yl)-1,2,4-oxadiazol-5-yl]piperidin-1-yl}-1,2-dihydroquinoline-3-carboxamide], 224 nM.
As to `Cc1ccc2oc(C3CCN(c4c(C(N)=O)c(=O)n(C)c5ccc(OCC6CC6)cc45)CC3)nc2c1` [Example 505, 6-(cyclopropylmethoxy)-1-methyl-4-[4-(5-methyl-1,3-benzoxazol-2-yl)piperidin-1-yl]-2-oxo-1,2-dihydroquinoline-3-carboxamide], the IC50 is 269 nM.
Next, `Cn1c(=O)c(C#N)c(N2CCC(c3nc4cc(F)ccc4s3)CC2)c2ccccc21` [Example 13, 4-[4-(5-fluoro-1,3-benzothiazol-2-yl)piperidin-1-yl]-1-methyl-2-oxo-1,2-dihydroquinoline-3-carbonitrile]: 5.1 nM; `Cc1ccccc1-n1ccc(C2CCN(c3c(C#N)c(=O)n(C)c4ccccc34)CC2)n1` [Example 367, 1-methyl-4-{4-[1-(2-methylphenyl)-1H-pyrazol-3-yl]piperidin-1-yl}-2-oxo-1,2-dihydroquinoline-3-carbonitrile]: 21 nM.
Next, `Cn1c(=O)c(C#N)c(N2CCC(c3cnccn3)CC2)c2ccccc21` [Example 150, 1-methyl-2-oxo-4-[4-(pyrazin-2-yl)piperidin-1-yl]-1,2-dihydroquinoline-3-carbonitrile]: 1530 nM; `COC1(c2nc3ccccc3o2)CCN(c2c(C(N)=O)c(=O)n(C)c3ccccc23)CC1` [Example 489, 4-[4-(1,3-benzoxazol-2-yl)-4-methoxypiperidin-1-yl]-1-methyl-2-oxo-1,2-dihydroquinoline-3-carboxamide]: 7.5 nM; `CCCOc1ccc2c(N3CCC(C)(c4nc5cc(C)ccc5o4)CC3)c(C#N)c(=O)n(C)c2c1` [Example 257, 1-methyl-4-[4-methyl-4-(5-methyl-1,3-benzoxazol-2-yl)piperidin-1-yl]-2-oxo-7-propoxy-1,2-dihydroquinoline-3-carbonitrile]: 26 nM.
